Laboratory results taken from patent publication US10183008B2, “Treatment of prolonged status epilepticus” (University of South Carolina, priority 2011, dated 2019).

How the values were obtained:
[1] = system: tonic inhibition (GABAergic tonic current); assay: Brain slice whole-cell electrophysiology: tonic current in dentate granule cells; type: cell-based, rat; conditions: for effect on tonic inhibition: 1 μM DZP, 100 μM STP
[2] = system: GABAAR subunit combinations; conditions: STP 100 μM, GABA 0.3 μM, n=5-9, HEK-293T; cited from earlier work
[3] = system: lithium-pilocarpine model of S.E.; assay: Lithium-pilocarpine model of status epilepticus, behavioral seizure scoring (Racine scale); type: in vivo, rat; conditions: for termination of brief behavioral convulsions: postnatal 20-25 day male rats, drug i.p. at onset of first stage 3 convulsion, score 15 min after
Procedure: The ED50 was determined based on the fit of the sigmoidal dose-response curve.
Experiments were performed on male rats age 5-65 days. SE was induced using lithium pilocarpine. Brief SE was defined as the onset of stage 3 seizures. Prolonged SE was defined as 45 minutes of SE following the first stage 3 seizure.
Status epilepticus was induced in male Sprague Dawley rats (5-65 days old; Harlan Sprague Dawley, Indianapolis, Ind.) by intraperitoneal injection of lithium chloride (LiCl) at 127 mg/kg followed 15-20 hr later by scopolamine methylbromide (2 mg/kg) and then pilocarpine at 60 mg/kg. After pilocarpine injection, the rats were observed continuously for occurrence of behavioral seizures. Seizures were scored according to the Racine scale with slight modifications: 0-normal behavior; 1-immobile, staring, curled-up posture; 2-automatisms: repetitive blinking, chewing, headbobbing, vibrissae twitching, scratching, face-washing; 3-forelimb/hindlimb myoclonic jerking, head tremor; 4-rearing, whole body clonus; 5-loss of posture, rearing and falling. EEG recordings, have established that the cortical electrographic onset of SE corresponds to the onset of forelimb clonus, or stage 3 seizures. Therefore, diazepam or stiripentol was administered either at the onset of S3 seizures (brief SE) or 45 min after S3 seizure onset (prolonged SE). The seizure scores were taken continuously, but specifically 15 mins after the first S3 seizure, and 15 mins after treatment. The scores represented in the data were recorded 15 minutes following treatment. Solutions of lithium, scopolamine, pilocarpine and stiripentol were made fresh on the day of the experiments. Lithium, scopolamine and pilocarpine were dissolved in 0.9% saline. Stiripentol was dissolved in 20% propylene glycol and 80% ethanol. Diazepam was purchased commercially in a solution of 10% propylene glycol and 80% ethanol. All drugs were administered via intraperitoneal (i.p) injection.

prolonged SE = conditions: 45 minutes after onset; cited from earlier work

Row | Structure (SMILES) | effect on tonic inhibition [1] | effect on GABA current [2] | anticonvulsant effect in 60-65 compared to 20-25 day old rats ([3]; age comparison) | termination of brief behavioral convulsions [3] | potentiation of tonic current during prolonged SE ([1]; prolonged SE, DZP 1 μM, STP 100 μM, n=3-4) | pharmacoresistance following prolonged SE (shift of ED50 for seizure termination) ([3]; prolonged SE (45 min after stage 3 onset) vs brief SE) | fold decrease in efficacy at terminating prolonged SE (prolonged SE)
1 | CC(C)(C)C(O)/C=C/c1ccc2c(c1)OCO2 (stereo not drawn) [STP, 1-(3,4-methylenedioxyphenyl)-4,4-dimethylpent-1-en-3-ol] | increase tonic inhibition | increases GABA (0.3 μM) current at all tested GABAAR subunit combinations | reduced | terminate brief behavioral convulsions | – | – | –
2 | CN1C(=O)CN=C(c2ccccc2)c2cc(Cl)ccc21 [DZP, diazepam] | increase tonic inhibition | – | – | terminate brief behavioral convulsions | less effective at potentiating tonic current | develops pharmacoresistance | 9-10 fold
